Source: patent US10577315B2, “Compositions and methods for treatment of prostate carcinoma” (Pellficure Pharmaceuticals, Inc., priority 2014, dated 2020)

Key:
Format in all cases: cell-based
[1] = test system: PTEN-P2/GFP prostate cancer cells; test: Effect of 1,4-naphthoquinone analogs on PTEN-P2/GFP cell proliferation (WST-1 cell viability, 24 h); conditions: Mus musculus, WST-1, medium with 10% FBS and DHT, read-out: PTEN-P2/GFP cell proliferation, percent of control
Procedure: Cells are grown in phenol red-free DMEM medium containing 10% FBS, 2 mM L-glutamine, 100 U/ml penicillin/100 μg/ml streptomycin, insulin-selenium-transferrin (5 μg/ml insulin), and DHT 10^−8M final. Androgen withdrawal is achieved by not adding DHT to the medium. Cells are maintained in a humidified incubator at 37° C. and 5% CO2. G418 (100 μg/ml) is added to maintain stable expression of H2B-GFP.
(§1) 100 microliters of PTEN-P2/GFP prostate cancer cells were plated at a density of 8000 cells/well in 96-well plates (triplicates) in growing medium containing 10% Fetal Bovine Serum and DHT. The next day, increasing concentrations of a 1,4-naphthoquinone analog (diluted from 10 mM DMSO stock solutions) were added. DMSO used as solvent for all analogs, was kept constant through the 96-well plates. The control consisted of DMSO alone. The cells were subsequently incubated for 24 hours at 37° C. and 5% CO2 in normal cell growth conditions. Cell viability was assessed by adding 9 μL/well of WST-1 reagent (Clontech), which measured mitochondrial activity of live cells. […] The incubation time was 3 hours at 37° C. Optical density of the cell samples was measured at 460 nm, by using plate reader Spectra Max 250 (Molecular Devices). The drug was determined to be cytotoxic when OD values show an inverse correlation with analog concentrations. The results are shown in TABLES 3.1-3.4, FIGS. 2A-2E, and FIGS. 3A-3D.

[2] = test system: human fibrosarcoma HT1080 cells; test: Dose response of 1,4-naphthoquinone analogs in human fibrosarcoma cells HT1080 (WST-1, 24 h)
Procedure: as §1, with “human fibrosarcoma HT1080” for “PTEN-P2/GFP prostate cancer”, “Serum, penicillin/streptomycin,” for “Serum”, “glutamine.” for “DHT.”, “concentrations.” for “concentrations. The results are shown in TABLES 3.1-3.4, FIGS. 2A-2E, and FIGS. 3A-3D.”

[3] = test system: human breast cancer SKBR-3 cells; test: Dose response of 1,4-naphthoquinone analogs in human breast cancer cells SKBR-3 (WST-1, 24 h)
Procedure: as §1, with “human breast” for “PTEN-P2/GFP prostate”, “cancer SKBR-3” for “cancer”, “Serum, penicillin/streptomycin,” for “Serum”, “glutamine.” for “DHT.”, “concentrations.” for “concentrations. The results are shown in TABLES 3.1-3.4, FIGS. 2A-2E, and FIGS. 3A-3D.”

| Structure (SMILES) | activity at 2 µM [1] [%] | activity at 3 µM [1] [%] | activity at 4 µM [1] [%] | activity at 5 µM [1] [%] | activity at 6 µM [1] [%] | activity at 7 µM [1] [%] | activity at 10 µM [1] [%] | activity at 15 µM [1] [%] | activity at 25 µM [1] [%] | proliferation of human fibrosarcoma HT1080 cells, percent of control ([2]; 1.2 μM) | proliferation of human fibrosarcoma HT1080 cells, percent of control ([2]; 2.5 μM) | proliferation of human fibrosarcoma HT1080 cells, percent of control ([2]; 5 μM) | proliferation of human fibrosarcoma HT1080 cells, percent of control ([2]; 7.5 μM) | proliferation of human fibrosarcoma HT1080 cells, percent of control ([2]; 10 μM) | proliferation of human fibrosarcoma HT1080 cells, percent of control ([2]; 15 μM) | proliferation of human fibrosarcoma HT1080 cells, percent of control ([2]; 20 μM) | human SKBR-3 cell proliferation, percent of control ([3]; 1.2 μM) | human SKBR-3 cell proliferation, percent of control ([3]; 2.5 μM) | human SKBR-3 cell proliferation, percent of control ([3]; 5 μM) | human SKBR-3 cell proliferation, percent of control ([3]; 7.5 μM) | also measured |
| --- | --- | --- | --- | --- | --- | --- | --- | --- | --- | --- | --- | --- | --- | --- | --- | --- | --- | --- | --- | --- | --- |
| O=C1C=C(Oc2ccccc2)C(=O)c2ccccc21 [Analog F01, 2-phenoxy-1,4-naphthoquinone] | 91.7 | 77.9 | 63.4 | 43.1 | 30.9 | 24.1 | 13.2 | 9.77 | 9.86 | 85.21% of control | 81.88% of control | 66.22% of control | 73.66% of control | 69.05% of control | 41.07% of control | 18.29% of control | 99.47% of control | 105.05% of control | 85.33% of control | 61.15% of control | human SKBR-3 cell proliferation, percent of control ([3]; 10 μM): 4.30% of control; human SKBR-3 cell proliferation, percent of control ([3]; 15 μM): 1.90% of control; human SKBR-3 cell proliferation, percent of control ([3]; 20 μM): 2.19% of control |
| O=C1C=C(Oc2c(F)c(F)c(F)c(F)c2F)C(=O)c2ccccc21 [Analog F02, 2-(2,3,4,5,6-pentafluorophenoxy)-1,4-naphthoquinone] | 97.9 | 94.8 | 93.3 | 90.3 | 82.6 | 74.3 | 47.6 | 28.7 | 12.3 | 84.28% of control | 82.46% of control | 82.96% of control | 76.72% of control | 74.71% of control | 65.17% of control | 63.04% of control | 107.66% of control | 116.47% of control | 107.37% of control | 94.47% of control | human SKBR-3 cell proliferation, percent of control ([3]; 10 μM): 75.45% of control; human SKBR-3 cell proliferation, percent of control ([3]; 15 μM): 35.60% of control; human SKBR-3 cell proliferation, percent of control ([3]; 20 μM): 3.02% of control |
| CC(=O)Nc1ccc(OC2=CC(=O)c3ccccc3C2=O)cc1 [Analog F03, 2-(4-acetamidophenoxy)-1,4-naphthoquinone] | 97.8 | 97.1 | 97.1 | 97.1 | 85 | 76.2 | 43 | 20 | 9.61 | 81.33% of control | 85.67% of control | 74.59% of control | 72.11% of control | 75.09% of control | 55.37% of control | 38.21% of control | 88.89% of control | 87.44% of control | 64.41% of control | 36.88% of control | human SKBR-3 cell proliferation, percent of control ([3]; 10 μM): 7.32% of control; human SKBR-3 cell proliferation, percent of control ([3]; 15 μM): 1.24% of control; human SKBR-3 cell proliferation, percent of control ([3]; 20 μM): 1.57% of control |
